According to PubChem BioAssay (NCI):
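Briefly, cells in 96-well plates were exposed to five compound concentrations for 48 h, and endpoints were estimated by linear interpolation. TGI marks complete inhibition of growth.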

How the values were obtained:
Assay in all cases: inhibition of tumour cell growth, NCI panel, 48 h
U251 CNS = test system: U251 CNS
EKVX NSCLC = test system: EKVX NSCLC
MCF7 breast = test system: MCF7 breast
MOLT-4 leukemia = test system: MOLT-4 leukemia
MDA-MB-231 breast = test system: MDA-MB-231 breast
SNB-75 CNS = test system: SNB-75 CNS
OVCAR-8 ovarian = test system: OVCAR-8 ovarian
786-0 renal = test system: 786-0 renal
NCI-H522 lung = test system: NCI-H522 lung
SN12C renal = test system: SN12C renal
SK-MEL-5 melanoma = test system: SK-MEL-5 melanoma
NCI-H226 lung = test system: NCI-H226 lung

Compound	TGI (U251 CNS)	TGI (EKVX NSCLC)	TGI (MCF7 breast)	TGI (MOLT-4 leukemia)	TGI (MDA-MB-231 breast)	TGI (SNB-75 CNS)	TGI (OVCAR-8 ovarian)	TGI (786-0 renal)	TGI (NCI-H522 lung)	TGI (SN12C renal)	TGI (SK-MEL-5 melanoma)	TGI (NCI-H226 lung)
OCCCN(CCc1ccc(Cl)c(Cl)c1)CCN1CCCC1	> 100 µM	> 100 µM	79.9 µM	> 100 µM	> 100 µM	> 100 µM	> 100 µM	60.4 µM	54.5 µM	> 100 µM	–	–
C#CCSc1cnc2ccccc2c1Sc1c[nH]c2ccccc2c1=O	50 µM	> 100 µM	> 100 µM	> 100 µM	> 100 µM	83.3 µM	> 100 µM	44.9 µM	29.1 µM	40.7 µM	44.8 µM	89.9 µM
CCOC(=O)C1(Cc2ccccc2)CCN(C(=O)c2ccccc2)C2C1C2(Cl)Cl (centres undefined)	32.6 µM	71.7 µM	71 µM	52.9 µM	43.9 µM	62.6 µM	77.4 µM	44.2 µM	42.5 µM	32.4 µM	29.5 µM	63.4 µM
CC1=NN(C(=O)CC(=O)Nc2cccc(Cl)c2)C(=O)C1N=Nc1ccc(S(=O)(=O)c2ccc(N=NC3C(=O)N(C(=O)CC(=O)Nc4cccc(Cl)c4)N=C3C)cc2)cc1 (centres undefined)	> 100 µM	> 100 µM	> 100 µM	> 100 µM	52.2 µM	> 100 µM	> 100 µM	> 100 µM	> 100 µM	> 100 µM	> 100 µM	> 100 µM
C(/C=N/NC1=NCCN1)=N\NC1=NCCN1	> 100 µM	> 100 µM	> 100 µM	> 100 µM	> 100 µM	> 100 µM	> 100 µM	> 100 µM	> 100 µM	–	> 100 µM	> 100 µM
c1ccc(-c2cc(-c3cc(-c4ccccc4)n[nH]3)[nH]n2)cc1	> 100 µM	> 100 µM	> 100 µM	> 100 µM	> 100 µM	> 100 µM	> 100 µM	> 100 µM	> 100 µM	> 100 µM	> 100 µM	> 100 µM
CCOC(=O)CC[C@@H](NC(=O)c1ccc(NCc2ccc3nc(OC)c(OC)nc3c2)cc1)C(=O)OCC	> 100 µM	> 100 µM	> 31.6 µM	> 31.6 µM	> 100 µM	24.9 µM	> 100 µM	> 100 µM	50.5 µM	> 100 µM	27.9 µM	> 100 µM
C/C=C/[C@@H]1O[C@H](CC#C[Si](C)(C)C)[C@@]2(C=O)C(C)=CC[C@H](C(C)C)[C@@H]12	34.4 µM	41 µM	63.1 µM	34.5 µM	36.6 µM	54.1 µM	> 100 µM	31.3 µM	4.78 µM	34.8 µM	35.2 µM	41.7 µM
C=CCC1(O)c2cccc(O)c2C(=O)c2cccc(O)c21 (centres undefined)	45.5 µM	60.1 µM	76.9 µM	53.6 µM	53.4 µM	52 µM	> 100 µM	46.1 µM	42 µM	–	26.4 µM	74.3 µM
